The numbers were not newly measured in patent publication US20110104137A1, “ADJUNCTS AND COMPLEXES FOR IMPROVING HMG-CoA REDUCTASE INHIBITOR (STATIN) AND SELECTIVE PHOSPHODIESTERASE 5 INHIBITOR THERAPY” (ChronoRX LLC, an Alaska Limited Liability Company, priority 2009, published 2011), which cites them from elsewhere.

Each structure is given as a SMILES string.

Series [1] deals with NF-kappaB. To be noted: in vitro and ex-vivo.
The conditions of series [2]: rosuvastatin 40 mg/d.
The subject of series [3] is ADMA. As to conditions: in vivo.
The conditions of series [4]: no hyperlipidemia, elevated high-sensitivity CRP.
The conditions of series [5]: in vivo.
For series [6] the following is noted: 12 months, IVUS.
For series [7] the following is noted: atorvastatin 80 mg versus pravastatin 40 mg, after ACS.
For series [8], the system named is PGI2. To be noted: administered therapeutic dose, humans.
For series [9], the target named is T1, CETP (Homo sapiens, UniProt P11597).
T1 construct: Circulating CETP mediates the transfer of cholesteryl esters from HDL to LDL; host or cells: patients (endogenous plasma CETP, in vivo)
T1 sequence (P11597 18-493): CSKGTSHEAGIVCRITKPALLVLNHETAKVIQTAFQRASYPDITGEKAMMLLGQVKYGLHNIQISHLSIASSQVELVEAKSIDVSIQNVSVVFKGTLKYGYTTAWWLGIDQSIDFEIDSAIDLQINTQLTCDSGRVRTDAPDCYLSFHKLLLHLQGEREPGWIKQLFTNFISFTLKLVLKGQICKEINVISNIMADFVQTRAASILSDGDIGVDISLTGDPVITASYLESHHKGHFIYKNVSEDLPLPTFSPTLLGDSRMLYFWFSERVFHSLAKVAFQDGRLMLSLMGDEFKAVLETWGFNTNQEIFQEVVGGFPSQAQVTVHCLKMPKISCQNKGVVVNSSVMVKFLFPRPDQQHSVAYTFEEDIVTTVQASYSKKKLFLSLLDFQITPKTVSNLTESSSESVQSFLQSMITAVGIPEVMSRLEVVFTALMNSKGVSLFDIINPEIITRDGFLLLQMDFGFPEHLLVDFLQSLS

For series [10] the following is noted: oral L-CAR; placebo group 26.0%.
Series [11] concerns Lp(a). To be noted: patients with otherwise elevated levels.
Where [12] appears, read: monotherapy and in combination with a statin.

Turning to `O=C(O)CCCCC1CCSS1` (stereo not shown) [LA, 1,2-dithiolane-3-pentanoic acid], the NF-kappaB activation result in series [1] is “inhibits NF-kappaB activation”.

For the molecule `CC(C)c1nc(N(C)S(C)(=O)=O)nc(-c2ccc(F)cc2)c1/C=C/[C@@H](O)C[C@@H](O)CC(=O)O` [rosuvastatin], in series [2] (349 patients), the “average LDL achieved” value is reported as 60.8 mg/dL and the “increase in HDL” value was 14.7%. In addition, the regression of atherosclerosis result in [2] (intravascular ultrasound) is recorded as “significant regression of atherosclerosis”. The “effect on plasma ADMA” value in series [3] was “decrease in plasma ADMA”. Also, the “incidence of major cardiovascular events” value in series [4] is reported as “significantly reduced the incidence of major cardiovascular events”. For the same molecule, in [5], the interaction with warfarin entry is recorded as “potentiate warfarin”.

Consider `CC(C)c1c(C(=O)Nc2ccccc2)c(-c2ccccc2)c(-c2ccc(F)cc2)n1CC[C@@H](O)C[C@@H](O)CC(=O)O` [atorvastatin], for which the “progression of mean plaque volume or thickness” value in series [6] (131 patients, placebo 9.6) is 1.2 mm^3. In series [6] (compared to placebo), the “hyperechogenicity of the plaque” value was “increased the hyperechogenicity of the plaque”. For the same molecule, in [7], the “rate of hospitalization for HF” value is reported as “significantly reduced the rate of hospitalization for HF”. Moreover, the PGI2 signaling entry in series [8] is reported as “does not significantly decrease PGI2 signaling”. Besides, the interaction with warfarin result in series [5] is “potentiate warfarin”.

Consider `CCOC(=O)N1c2ccc(C(F)(F)F)cc2[C@@H](N(Cc2cc(C(F)(F)F)cc(C(F)(F)F)c2)C(=O)OC)C[C@H]1CC` [torcetrapib], for which the mortality entry in [9] (mean follow-up of 550 days, cardiovascular and noncardiovascular causes) is given as “significant increase in mortality”. In addition, in series [9] (setting [12]), the HDL-CHOL levels entry was “markedly increased HDL-CHOL levels”; the LDL-CHOL entry was “reduced LDL-CHOL”; the “mean particle size of HDL and LDL” value was “increased the mean particle size of both HDL and of LDL”.

On to `CC(=O)O[C@H](CC(=O)[O-])C[N+](C)(C)C` [L-CAR, Acetyl-L-carnitine], for which the “total cardiac events, including cardiac death and nonfatal infarction” value in [10] is on record as 15.6%. Further, the “plasma Lp(a)” value in series [11] is on record as “reduce plasma Lp(a)”.

Take `CC[C@H](C)C(=O)O[C@H]1C[C@@H](C)C=C2C=C[C@H](C)[C@H](CC[C@@H]3C[C@@H](O)CC(=O)O3)[C@H]21` [lovastatin]: in series [5], the interaction with warfarin entry is given as “potentiate warfarin”.
